Data on 17 compounds can be found in US9839642B2, “Beta-tetrazolyl-propionic acids as metallo-beta-lactamase inhibitors” (priority 2014, dated 2017).

A value given as a limit tells only on which side of the number the result lay.

As a reminder, the IC50 is the concentration that inhibits the measured activity by half.

One assay has as its target NDM-1 (Klebsiella pneumoniae, UniProt C7C422). Briefly: Enzyme activity: determination of IC50, fluorescence assay with CCF2-FA substrate. Format: biochemical. Conditions: enzyme 1 pM, CCF2-FA 1.25 μM, 2 hours at 25° C.; read-out: NDM1 IC50. The method, boiled down:
(§1)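 Enzyme (1 pM NDM-1, 2 pM IMP-1, 30 pM VIM-1) incubated with inhibitor (20 to 0.00063 μM) and 1.25 μM CCF2-FA in 100 mM KH2PO4 pH 7, 0.005% Tween-20, 10 μM ZnSO4, 2 h at 25 °C. Fluorescence read at 460 nm (ex 405 nm); IC50 by 4-parameter fit.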

Another assay has as its target VIM-1 (Pseudomonas aeruginosa, UniProt A0A0F7KYQ8). Described as above. The format is biochemical. As to conditions: enzyme 30 pM, CCF2-FA 1.25 μM, 2 hours at 25° C.; read-out: VIM1 IC50. The method, boiled down:
as §1

The next assay addresses IMP-1 (Serratia marcescens, UniProt P52699). Described as above. Format: biochemical. Conditions: enzyme 2 pM, CCF2-FA 1.25 μM, 2 hours at 25° C.; read-out: IMP1 IC50. The method, boiled down: as §1
The subject of assay [1] is Klebsiella pneumoniae expressing VIM-1 (IHMA599644). Briefly: Antibiotic potentiation activity: synergistic concentration (MITC95) with imipenem, growth by OD600. The format is cell-based. As to conditions: 95% inhibition of bacterial growth, strain IHMA599644. The method, boiled down: (§2)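 Strains grown overnight at 35° C, resuspended in saline, diluted 1:100 into 1.1×CAMHB; imipenem at 1 μg/ml or 4 μg/ml with test compound 200 μM to 0.195 μM. Incubated 22 hours to 24 hours at 35° C, OD600 read; MITC95 is lowest compound concentration inhibiting 95% of growth.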

Assay [2] concerns Escherichia coli expressing NDM-1 (CLB30016). The assay is described as above. As to conditions: 95% inhibition of bacterial growth, strain CLB30016. Format: cell-based. The method, boiled down:
as §2

Assay [3] has as its system Serratia marcescens expressing IMP-1 (CL5741). The assay is described as above. Format: cell-based. Conditions: 95% inhibition of bacterial growth, strain CL5741. The method in brief: as §2

Sequence of IMP-1 (P52699 19-246, looked up, species assumed): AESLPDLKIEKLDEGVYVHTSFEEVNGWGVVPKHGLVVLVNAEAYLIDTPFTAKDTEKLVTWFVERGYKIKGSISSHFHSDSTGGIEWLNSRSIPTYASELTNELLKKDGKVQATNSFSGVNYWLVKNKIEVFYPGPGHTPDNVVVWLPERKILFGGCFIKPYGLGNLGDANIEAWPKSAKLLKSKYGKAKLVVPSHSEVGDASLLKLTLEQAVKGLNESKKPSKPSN
Sequence of NDM-1 (C7C422 29-270, looked up, species assumed): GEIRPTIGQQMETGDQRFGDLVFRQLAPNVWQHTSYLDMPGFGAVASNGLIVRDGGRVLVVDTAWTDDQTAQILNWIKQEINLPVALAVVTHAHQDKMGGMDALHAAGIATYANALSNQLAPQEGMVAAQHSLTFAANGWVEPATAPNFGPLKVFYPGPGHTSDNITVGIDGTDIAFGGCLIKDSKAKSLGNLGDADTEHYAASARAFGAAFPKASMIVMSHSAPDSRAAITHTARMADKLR

As to `CC(C)C[C@H](C(=O)O)[C@H](Cc1ccc(-c2ccnc(N)c2)nc1)c1nn[nH]n1` [Example 178, (2S)-2-[(1S)-2-(2′-amino-2,4′-bipyridin-5-yl)-1-(2H-tetrazol-5-yl)ethyl]-4-methylpentanoic acid], the figures for the IC50 on NDM-1, on VIM-1 and on IMP-1 were 43 nM, 2.4 nM and 390 nM, respectively. In assay [1], the “VIM1 KP599644 MITC95” value came to 25 µM. Moreover, the “NDM1 EC30016 MITC95” value in assay [2] was determined as 9.4 µM. In assay [3], the “IMP1 SM5741 MITC95” value was determined as 12.5 µM.

Turning to `CC(C)C[C@H](C(=O)O)[C@H](Cc1ccc(-c2ccnc(N)c2)cn1)c1nn[nH]n1` [Example 179, (2S)-2-[(1S)-2-(2′-amino-3,4′-bipyridin-6-yl)-1-(2H-tetrazol-5-yl)ethyl]-4-methylpentanoic acid], the values for the IC50 on NDM-1, at VIM-1 and on IMP-1 were 66 nM, 24 nM and 1300 nM, respectively. Also, in assay [1], the “VIM1 KP599644 MITC95” value is 50 µM. Further, the “NDM1 EC30016 MITC95” value in assay [2] came out at 12.5 µM. In assay [3], the “IMP1 SM5741 MITC95” value came out at 38 µM.

Turning to `CC(C)C[C@H](C(=O)O)[C@H](Cc1ccc(-c2ccc3c(c2)OCC(=O)N3)nc1)c1nn[nH]n1` [Example 180, (2S)-4-methyl-2-[(1S)-2-[6-(3-oxo-3,4-dihydro-2H-1,4-benzoxazin-7-yl)pyridin-3-yl]-1-(2H-tetrazol-5-yl)ethyl]pentanoic acid], the IC50 at NDM-1 was found to be 17 nM; at VIM-1, 1.7 nM; at IMP-1, 130 nM. In addition, the “VIM1 KP599644 MITC95” value in assay [1] came to 50 µM. Moreover, the “NDM1 EC30016 MITC95” value in assay [2] is 25 µM. In assay [3], the “IMP1 SM5741 MITC95” value was 3.1 µM.

In the case of `CC(C)C[C@H](C(=O)O)[C@H](Cc1ccc(C2=CCNC2)nc1)c1nn[nH]n1` [Example 181, (2S)-2-[(1S)-2-[6-(2,5-dihydro-1H-pyrrol-3-yl)pyridin-3-yl]-1-(2H-tetrazol-5-yl)ethyl]-4-methylpentanoic acid], the IC50 on NDM-1 came to 1000 nM; at VIM-1, 17 nM; on IMP-1, 4400 nM. For the same compound, in assay [1], the “VIM1 KP599644 MITC95” value turned out to be 75 µM. For the same compound, the “NDM1 EC30016 MITC95” value in assay [2] was 38 µM. Besides, in assay [3], the “IMP1 SM5741 MITC95” value was 100 µM.

Turning to `CCC[C@H](C(=O)O)[C@@H](Cc1ccc(-c2ccc3c(c2)OCC(=O)N3)cn1)c1nnn[nH]1` [Example 182, (2S)-2-[(1R)-2-[5-(3-oxo-3,4-dihydro-2H-1,4-benzoxazin-7-yl)pyridin-2-yl]-1-(1H-tetrazol-5-yl)ethyl]pentanoic acid], the figures for the IC50 on NDM-1, on VIM-1 and on IMP-1 were 1000 nM, 330 nM and 16000 nM, respectively. The “VIM1 KP599644 MITC95” value in assay [1] was above 200 µM. For the same compound, the “NDM1 EC30016 MITC95” value in assay [2] amounted to 150 µM. Further, the “IMP1 SM5741 MITC95” value in assay [3] is above 200 µM.

`CCC[C@H](C(=O)O)[C@H](Cc1ccc(NCC2CCCN2CC)cc1)c1nn[nH]n1` (stereo partly drawn) [Example 215, (2S)-2-[(1S)-2-(4-{[(1-ethylpyrrolidin-2-yl)methyl]amino}phenyl)-1-(2H-tetrazol-5-yl)ethyl]pentanoic acid]: the values for the IC50 on NDM-1, on VIM-1 and on IMP-1 were 170 nM, 29 nM and 1100 nM, respectively. In addition, the “VIM1 KP599644 MITC95” value in assay [1] came out at 50 µM. Also, in assay [2], the “NDM1 EC30016 MITC95” value was determined as 12.5 µM. Moreover, the “IMP1 SM5741 MITC95” value in assay [3] is 18.8 µM.

Take `CCC[C@H](C(=O)O)[C@H](Cc1ccc(NCCN2CCOCC2)cc1)c1nn[nH]n1` [Example 216, (2S)-2-[(1S)-2-{4-[(2-morpholin-4-ylethyl)amino]phenyl}-1-(2H-tetrazol-5-yl)ethyl]pentanoic acid]: the half-inhibitory concentration (IC50) on NDM-1 worked out at 140 nM; at VIM-1, 110 nM; on IMP-1, 490 nM. Besides, the “VIM1 KP599644 MITC95” value in assay [1] came to 150 µM. Further, the “NDM1 EC30016 MITC95” value in assay [2] came to 31 µM. Besides, the “IMP1 SM5741 MITC95” value in assay [3] came to 18.8 µM.

Turning to `CCC[C@H](C(=O)O)[C@H](Cc1ccc(NCCN2CCCCC2)cc1)c1nn[nH]n1` [Example 217, (2S)-2-[(1S)-2-{4-[(2-piperidin-1-ylethyl)amino]phenyl}-1-(2H-tetrazol-5-yl)ethyl]pentanoic acid], the IC50 was 500 nM at NDM-1, 38 nM on VIM-1 and 2400 nM at IMP-1. Moreover, the “VIM1 KP599644 MITC95” value in assay [1] was 50 µM. Further, the “NDM1 EC30016 MITC95” value in assay [2] was found to be 12.5 µM. For the same compound, the “IMP1 SM5741 MITC95” value in assay [3] turned out to be 50 µM.

For the compound `CCC[C@H](C(=O)O)[C@H](Cc1ccc(NCC(=O)N(C)C)cc1)c1nn[nH]n1` [Example 218, (2S)-2-[(1S)-2-(4-{[2-(dimethylamino)-2-oxoethyl]amino}phenyl)-1-(2H-tetrazol-5-yl)ethyl]pentanoic acid], the IC50 at NDM-1 was 40 nM; on VIM-1 it was 21 nM; on IMP-1, 460 nM. Also, the “VIM1 KP599644 MITC95” value in assay [1] was 50 µM. The “NDM1 EC30016 MITC95” value in assay [2] was determined as 31 µM. Besides, the “IMP1 SM5741 MITC95” value in assay [3] was 25 µM.

For `CCC[C@H](C(=O)O)[C@H](Cc1ccc(NCCN2CCN(C(C)C)CC2)cc1)c1nn[nH]n1` [Example 219, (2S)-2-[(1S)-2-[4-({2-[4-(1-methylethyl)piperazin-1-yl]ethyl}amino)phenyl]-1-(2H-tetrazol-5-yl)ethyl]pentanoic acid], the IC50 at NDM-1 stood at 210 nM; at VIM-1, 93 nM; on IMP-1, 1000 nM. Also, in assay [1], the “VIM1 KP599644 MITC95” value was found to be 100 µM. In addition, the “NDM1 EC30016 MITC95” value in assay [2] stood at 25 µM. Also, the “IMP1 SM5741 MITC95” value in assay [3] turned out to be 25 µM.

Take `CCC[C@H](C(=O)O)[C@H](Cc1ccc(NCCN2CCCC(O)C2)cc1)c1nn[nH]n1` (stereo partly drawn) [Example 220, (2S)-2-[(1S)-2-(4-{[2-(3-hydroxypiperidin-1-yl)ethyl]amino}phenyl)-1-(2H-tetrazol-5-yl)ethyl]pentanoic acid]: the values for the IC50 at NDM-1, at VIM-1 and on IMP-1 were 360 nM, 75 nM and 1600 nM, respectively. The “VIM1 KP599644 MITC95” value in assay [1] is 50 µM. The “NDM1 EC30016 MITC95” value in assay [2] turned out to be 25 µM. Further, the “IMP1 SM5741 MITC95” value in assay [3] amounted to 50 µM.

`CCC[C@H](C(=O)O)[C@H](Cc1ccc(NCCn2ccnn2)cc1)c1nn[nH]n1` [Example 221, (2S)-2-[(1S)-1-(2H-tetrazol-5-yl)-2-(4-{[2-(1H-1,2,3-triazol-1-yl)ethyl]amino}phenyl)ethyl]pentanoic acid]: the IC50 at NDM-1 was 84 nM; on VIM-1 it was 27 nM; on IMP-1 it was 220 nM. In assay [1], the “VIM1 KP599644 MITC95” value amounted to 100 µM. For the same compound, the “NDM1 EC30016 MITC95” value in assay [2] is 31 µM. The “IMP1 SM5741 MITC95” value in assay [3] came to 16 µM.

For the compound `CCC[C@H](C(=O)O)[C@H](Cc1ccc(NC(C)CN)cc1)c1nn[nH]n1` (stereo partly drawn) [Example 222, (2S)-2-[(1S)-2-{4-[(2-amino-1-methylethyl)amino]phenyl}-1-(2H-tetrazol-5-yl)ethyl]pentanoic acid], the figures for the IC50 on NDM-1, at VIM-1 and at IMP-1 were 710 nM, 9.1 nM and 1700 nM, respectively. Also, in assay [1], the “VIM1 KP599644 MITC95” value is 25 µM. The “NDM1 EC30016 MITC95” value in assay [2] worked out at 18.8 µM. For the same compound, the “IMP1 SM5741 MITC95” value in assay [3] is 25 µM.

As to `CCC[C@H](C(=O)O)[C@H](Cc1ccc(NC2CCCN(CCC)C2)cc1)c1nn[nH]n1` (stereo partly drawn) [Example 223, (2S)-2-[(1S)-2-{4-[(1-propylpiperidin-3-yl)amino]phenyl}-1-(2H-tetrazol-5-yl)ethyl]pentanoic acid], the values for the IC50 on NDM-1, at VIM-1 and at IMP-1 were 500 nM, 71 nM and 1300 nM, respectively. Further, the “VIM1 KP599644 MITC95” value in assay [1] was 75 µM. Moreover, in assay [2], the “NDM1 EC30016 MITC95” value was found to be 38 µM. Further, in assay [3], the “IMP1 SM5741 MITC95” value was 25 µM.

Turning to `CCC[C@H](C(=O)O)[C@H](Cc1ccc(NC(C)CN(C)C)cc1)c1nn[nH]n1` (stereo partly drawn) [Example 224, (2S)-2-[(1S)-2-(4-{[2-(dimethylamino)-1-methylethyl]amino}phenyl)-1-(2H-tetrazol-5-yl)ethyl]pentanoic acid], the IC50 on NDM-1 is 1000 nM; at VIM-1, 82 nM; on IMP-1, 1100 nM. Moreover, the “VIM1 KP599644 MITC95” value in assay [1] came out at 50 µM. Besides, the “NDM1 EC30016 MITC95” value in assay [2] was found to be 25 µM. Also, the “IMP1 SM5741 MITC95” value in assay [3] was 18.8 µM.

As to `CCC[C@H](C(=O)O)[C@H](Cc1ccc(N2CCN(CCO)CC2)cc1)c1nn[nH]n1` [Example 225, (2S)-2-[(1S)-2-{4-[4-(2-hydroxyethyl)piperazin-1-yl]phenyl}-1-(2H-tetrazol-5-yl)ethyl]pentanoic acid], the values for the IC50 on NDM-1, on VIM-1 and at IMP-1 were 110 nM, 66 nM and 280 nM, respectively. For the same compound, in assay [1], the “VIM1 KP599644 MITC95” value is 50 µM. Besides, the “NDM1 EC30016 MITC95” value in assay [2] was determined as 25 µM. The “IMP1 SM5741 MITC95” value in assay [3] is 12.5 µM.

As to `CCC[C@H](C(=O)O)[C@H](Cc1ccc(N2CCN(c3ccccc3)CC2)cc1)c1nn[nH]n1` [Example 226, (2S)-2-[(1S)-2-[4-(4-phenylpiperazin-1-yl)phenyl]-1-(2H-tetrazol-5-yl)ethyl]pentanoic acid], the IC50 on NDM-1 stood at 20 nM; on VIM-1, 66 nM; on IMP-1 it was 39 nM. Further, in assay [1], the “VIM1 KP599644 MITC95” value was above 200 µM. The “NDM1 EC30016 MITC95” value in assay [2] came to 38 µM. In addition, the “IMP1 SM5741 MITC95” value in assay [3] was 3.1 µM.
